Reference: patent US7696129B2, “Substituted aromatic amide derivative, intermediate thereof, agrohorticultural insecticide containing thereof and method for the use thereof” (Nihon Nohyaku Co., Ltd., priority 2001, dated 2010)

Key:
Type in all cases: in vivo
[1] = test system: Diamond Back Moth (Plutella xylostella); test: Test Example 1: insecticidal effect on diamond back moth, immersion of Chinese cabbage seedling with eggs; details: seedling with eggs immersed about 30 seconds, 25° C., six days after the immersion; for Test Example 1 (insecticidal effect, mortality criterion): 50 ppm; for mortality at 50 ppm: Plutella xylostella, 144 h, read-out: Test Example 1 (insecticidal effect, mortality criterion)
Procedure, shortened: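 Chinese cabbage seedlings bearing 2-day-old moth eggs dipped about 30 s in compound at 50 ppm, air-dried, held at 25° C. Hatched larvae counted six days later to give mortality; triplicate groups of 10 insects.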

[2] = test system: Smaller Tea Tortrix (Adxophyes sp.); test: Test Example 3: insecticidal effect on smaller tea tortrix, tea leaf immersion; details: 50 ppm, tea leaves immersed about 30 seconds, larvae, 25° C., humidity 70%, eight days after the inoculation
Procedure, shortened: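 Tea leaves dipped about 30 s in compound diluted to 50 ppm, air-dried, then infested with smaller tea tortrix larvae at 25°C and 70% humidity. Mortality counted 8 days post-inoculation and scored by a graded criterion; triplicate groups of 10 insects.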

[3] = test system: Common Cutworm (Spodoptera litura); test: Test Example 2: insecticidal effect on common cutworm, cabbage leaf immersion; details: cabbage leaf immersed about 30 seconds, second-instar larvae, 25° C., eight days after the inoculation; for Test Example 2 (insecticidal effect, mortality criterion): 50 ppm; for mortality at 50 ppm: Spodoptera litura, 192 h, read-out: Test Example 2 (insecticidal effect, mortality criterion)
Procedure, shortened: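 Cabbage leaf pieces dipped about 30 seconds in 50 ppm compound dilution, air-dried, then infested with second-instar larvae and kept at 25° C. Dead and alive counted eight days after inoculation to give mortality; triplicate groups of 10 insects.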

[4] = test system: Diamond Back Moth (Plutella xylostella); test: Test Example 4: controlling effect on diamond back moth with soil treatment (pricking-in hole treatment with granules); details: 10 mgAI/plant, soil treatment at fix planting, about 50 eggs inoculated nine days after planting
From the text: Controlling Effect on Diamond Back Moth (Plutella xylostella) with Soil Treatment of […] The pricking-in hole treatment was done with the granules containing each compound listed in Tables 4 according to the formulation examples of the present invention, at the fix planting of […] (cultivar; YR Seitoku). Nine days after the fix planting, about 50 eggs of diamond back moth (Plutella xylostella) were innoculated, then the number of the parasitic insects of diamond back moth (Plutella xylostella) was counted on the specified days after the innoculation.

| SMILES | Test Example 1 (insecticidal effect, mortality criterion) [1] | Test Example 3 (insecticidal effect, mortality criterion) [2] | Test Example 2 (insecticidal effect, mortality criterion) [3] | Number of the parasitic insects/three plants After 18 days [4] | Number of the parasitic insects/three plants After 25 days [4] | Number of the parasitic insects/three plants After 32 days [4] | mortality at 50 ppm [1] [%] | mortality at 50 ppm [3] [%] |
| --- | --- | --- | --- | --- | --- | --- | --- | --- |
| CSCC(C)(C)NC(=O)c1c(I)cccc1C(=O)Nc1ccc(C(C(F)(F)F)C(F)(F)F)cc1C [5-30] | A (Mortality 100%) | A (Mortality 100%) | A (Mortality 100%) | 0 parasitic insects/three plants | 3 parasitic insects/three plants | 22 parasitic insects/three plants |  |  |
| Cc1nc(C(C(F)(F)F)C(F)(F)F)ccc1NC(=O)c1cccc(I)c1C(=O)NC(C)COC(=O)NCc1ccccc1 (stereo not drawn) [8-27] | A (Mortality 100%) | E (Mortality 49% or less) | E (Mortality 49% or less) |  |  |  |  |  |
| CSCC1(C)COC(c2c(I)cccc2C(=O)Nc2ccc(C(C(F)(F)F)C(F)(F)F)cc2C)=N1 (stereo not drawn) [10-2] | A (Mortality 100%) | E (Mortality 49% or less) | E (Mortality 49% or less) |  |  |  |  |  |
| Cc1cc(C(C(F)(F)F)C(F)(F)F)ccc1NC(=O)c1cccc(I)c1C1=NC(C)(C[S+](C)[O-])CO1 (stereo not drawn) [10-3] | A (Mortality 100%) | E (Mortality 49% or less) | E (Mortality 49% or less) |  |  |  |  |  |
| Cc1cc(C(C(F)(F)F)C(F)(F)F)ccc1NC(=O)c1cccc(I)c1C1=NC(C)(CS(C)(=O)=O)CO1 (stereo not drawn) [10-4] | A (Mortality 100%) | E (Mortality 49% or less) | E (Mortality 49% or less) |  |  |  |  |  |
| CCc1cc(CC(F)(F)F)ccc1NC(=O)c1cccc(I)c1C(=O)NC(C)(C)CSC [Compound No. 5-2] | A (Mortality 100%) | A (Mortality 100%) | A (Mortality 100%) |  |  |  |  |  |
| CSCC(C)(C)NC(=O)c1c(I)cccc1C(=O)Nc1ccc(C(C(F)(F)F)C(F)(F)F)cc1C [Compound No. 5-28, N^2-(1,1-dimethyl-2-methylthioethyl)-3-iodo-N^1-{2-methyl-4-[2,2,2-trifluoro-1-(trifluoromethyl)ethyl]phenyl}phthalamide] |  | A (Mortality 100%) |  | 0 parasitic insects/three plants | 5 parasitic insects/three plants | 14 parasitic insects/three plants | 100 | 100 |
| Cc1cc(C(C(F)(F)F)C(F)(F)F)ccc1NC(=O)c1cccc(I)c1C(=O)NC(C)(C)C[S+](C)[O-] (stereo not drawn) [Compound No. 5-29, N^2-(1,1-dimethyl-2-methylsulfinylethyl)-3-iodo-N^1-[2-methyl-4-{2,2,2-trifluoro-1-(trifluoromethyl)ethyl}phenyl]phthalamide] |  | A (Mortality 100%) |  | 0 parasitic insects/three plants | 0 parasitic insects/three plants | 0 parasitic insects/three plants | 100 | 100 |
| CSCC(C)(C)NC(=O)c1c(I)cccc1C(=O)Nc1ccc(C(C(F)(F)F)C(F)(F)F)nc1Cl [Compound No. 8-4, N^2-(1,1-dimethyl-2-methylthioethyl)-3-iodo-N^1-{2-chloro-6-[2,2,2-trifluoro-1-(trifluoromethyl)ethyl]pyridin-3-yl}phthalamide] |  | A (Mortality 100%) |  |  |  |  | 100 | 100 |
| Cc1cc(C(C(F)(F)F)C(F)(F)F)ccc1NC(=O)c1cccc(I)c1C1=NC(C)(C)CO1 [Compound No. 10-1, 3-iodo-2-(4,4-dimethyloxazolin-2-yl)-2′-methyl-4′-[2,2,2-trifluoro-1-(trifluoromethyl)ethyl]benzanilide] |  | E (Mortality 49% or less) |  |  |  |  | 100 | ≤ 49 |
